Measurements published in patent US10421769B2, “Anticancer property studies of chiral palladium N-heterocyclic carbene complexes and process for preparation thereof” (Indian Institute of Technology Bombay, priority 2017, dated 2019).
Where two headings read alike, the source gives them in different places. One block for each compound: values may come before it.

Legend:
MCF-7 cells [1] = assay: Sulforhodamine B assay, proliferation of MCF-7 cells; assay type: cell-based, human; details: MCF-7 breast cancer cells, one cell cycle (48 h), SRB
Method: (§1) The present invention further provides a Sulforhodamine B assay method for investigating the anti-cancer efficacies of the compounds of the present Pd—NHC series on MCF-7, HeLa, A549, B16-F10 and EMT6/AR1 cancer cell lines and also for a comparative study on normal skin cell line L929 and normal epithelial breast cells MCF10A. The said Sulforhodamine B assay is conducted as per reported method (Skehan et al., J. Natl. Cancer Inst. 1990, 82, 1107).
(§2) Experiment: The anti-proliferative activity of the present palladium N-heterocyclic carbene complexes on two different cancer cell lines MCF-7 and HeLa is tested using Sulforhodamine B assay to reveal their anti-tumor properties. The evaluation of growth inhibition of these complexes is done from their IC50 values for the inhibition of cell growth. The IC50 values are compared with Cisplatin to determine any increase in efficacy.
Method: The effects of present series of palladium N-heterocyclic carbene complexes, such as compounds (1S,2S,5R)-(1-3)b and (1R,2R,5S)-(1-3)b; (1S,2S,5R)-(1, 3)c and (1R,2R,5S)-(1, 3)c on the proliferation of MCF-7 cells after one cell cycle are determined by Sulforhodamine B assay. In particular, 1×10^5 cells/mL are seeded in each well in 96-well plates for 24 h and then incubated without or with different concentrations of these complexes at 37° C. for one cell cycle (48 h). After incubation of cells with the complexes for one cell cycle, cell growth is stopped by the addition of 50% trichloroacetic acid and stained with 0.4% sulforhodamine B dissolved in 1% acetic acid. Unbound dye is removed by washing with 1% acetic acid, and the protein content is determined by measuring absorbance at 520 nm in a Bio-Rad model 680 microplate reader after extracting with 10 mM tris base. IC50 value is calculated as the concentration of the complex that inhibited the proliferation of cells by 50% relative to the untreated control cells. The anticancer activities of the present Pd—NHC compounds are graphically represented in accompanying FIG. 1.
(§3) The data obtained is graphically represented in accompanying FIG. 2.

HeLa cells [2] = assay: Sulforhodamine B assay, proliferation of HeLa cells; assay type: cell-based, human; details: HeLa cervical cancer cells, 24 h, SRB
Method: as §1, §2
The seeded cells in 96-well plates are incubated with the complex for 24 h and the assay is performed.
as §3

MCF-7 cells [3] = assay: Live dead assay by flow cytometry using propidium iodide; assay type: cell-based, human; details: MCF-7, 4 μM, 48 h
Method: MCF-7 cells (5 mL) were seeded in 60 mm cell culture dishes at a density of 1.5×10^5 cells/mL. Cells were incubated with 4 and 8 μM (1R,2R,5S)-1c for 48 h for live dead assay. After the required incubation, cells were processed and analyzed by flow cytometry. Percentage of live and dead MCF-7 cells in the absence and presence of 4 and 8 μM (1R,2R,5S)-1c and 4 μM cisplatin was determined by flow cytometry using propidium iodide (PI).

MCF-7 cells [4] = details: MCF-7, one cell cycle, SRB, Ghosh et al. JACS 2007; read-out: MCF-7 (IC50 value), prior art (a); cited from earlier work
HeLa cells [5] = details: one cell cycle, SRB, Ghosh et al. JACS 2007, read-out: HeLa (IC50 value), prior art (a); cited from earlier work
HCT 116 cells = details: HCT 116, one cell cycle, SRB, Ghosh et al. JACS 2007; read-out: HCT-116 (IC50 value), prior art (a); cited from earlier work
HCT 116 cell lines = details: HCT 116, MTT, 72 hours, Haque et al. Metallomics 2013; read-out: HCT-116 (IC50 value), prior art (b); cited from earlier work
[6] = tested on: intracellular ROS in MCF-7 cells; assay: Reactive oxygen species (ROS) assay using H2DCFDA, flow cytometry; assay type: cell-based, human; details: MCF-7, 30 μM, 24 h, positive control
Method: Experiment: Reactive oxygen species (ROS) production in cells when treated with (1R,2R,5S)-1c, was estimated by ROS assay using 2′,7′-dichlorodihydrofluorescein diacetate (H2DCFDA). MCF-7 cells (5 mL) were seeded in 60 mm cell culture dishes at a density of 1.5×10^5 cells/mL. After cell attachment, they were incubated with 4 and 8 μM (1R,2R,5S)-1c for 24 h. Cells treated with 30 μM hydrogen peroxide was used as a positive control. Following 24 h of incubation, the cells were processed and analyzed using flow cytometry. The percentage of DCFH-DA positive MCF-7 cells in the absence and presence 4 and 8 μM (1R,2R,5S)-1c was determined by flow cytometry. 30 μM H2O2 was used as a positive control. Data are average of three independent set of experiments and ±indicates S.D.

IC50 (MCF-7 cells [1]; read-out: IC50 (μM), MCF-7): ~10 µM
Compound: trans-[1-(1S)-menthyl-4-(allyl)-1,2,4-triazol-5-ylidene]2PdBr2 [(1S,2S,5R)-2b]

IC50 (MCF-7 cells [1]; read-out: IC50 (μM), MCF-7): 0.7 ± 0.005 µM | IC50 (MCF-7 cells [1]; unit nM printed in cell or sentence, read-out: IC50, MCF-7 (values given in nM)): 0.7 ± 0.005 µM | IC50 (HeLa cells [2]; listed as drawing 40): 2.6 ± 1.6 µM | IC50 (HeLa cells [2]; listed as drawing 47): 2.6 ± 1.6 µM
Compound: trans-[1-(1S)-menthyl-4-(ethyl)-1,2,4-triazol-5-ylidene]2Pd(OCOCF3)2 [(1S,2S,5R)-1c]

IC50 (MCF-7 cells [1]; read-out: IC50 (μM), MCF-7): > 10 µM
Compound: trans-[1-(1S)-menthyl-4-(benzyl)-1,2,4-triazol-5-ylidene]2PdBr2 [(1S,2S,5R)-3b]

IC50 (MCF-7 cells [1]; read-out: IC50 (μM), MCF-7): 2.2 ± 0.1 µM
Compound: trans-[1-(1S)-menthyl-4-(ethyl)-1,2,4-triazol-5-ylidene]2PdBr2 [(1S,2S,5R)-1b]

IC50 (MCF-7 cells [1]; read-out: IC50 (μM), MCF-7): > 10 µM
Compound: trans-[1-(1R)-menthyl-4-(benzyl)-1,2,4-triazol-5-ylidene]2PdBr2 [(1R,2R,5S)-3b]

IC50 (MCF-7 cells [1]; read-out: IC50 (μM), MCF-7): ~10 µM
Compound: trans-[1-(1R)-menthyl-4-(allyl)-1,2,4-triazol-5-ylidene]2PdBr2 [(1R,2R,5S)-2b]

The next lines start with the compound.

Compound: N.N.[Cl][Pt][Cl] [cisplatin, cis-diammine-dichloroplatinum (II), reference compound]
IC50 (MCF-7 cells [1]; read-out: IC50 (μM), MCF-7): 14.9 ± 0.4 µM | IC50 (HeLa cells [2]): 8.5 ± 0.7 µM | Dead % (MCF-7 cells [3]): 8 ± 2% | Live % (MCF-7 cells [3]): 93 ± 4% | IC50 (MCF-7 cells [4]): 15 µM | IC50 (HeLa cells [5]): 8 µM | IC50 (HCT 116 cells): 16 µM

Compound: CCCCN1C=CN(Cc2ccccc2)[CH]1[Pd]([Cl])([Cl])[CH]1N(CCCC)C=CN1Cc1ccccc1 (stereo not shown) [Compound 9]
IC50 (HCT 116 cell lines): 6.6 µM

Compound: trans-[1-(1S)-menthyl-4-(benzyl)-1,2,4-triazol-5-ylidene]2Pd(OCOCF3)2 [(1S,2S,5R)-3c]
IC50 (MCF-7 cells [1]; read-out: IC50 (μM), MCF-7): > 10 µM

Compound: trans-[1-(1R)-menthyl-4-(ethyl)-1,2,4-triazol-5-ylidene]2PdBr2 [(1R,2R,5S)-1b]
IC50 (MCF-7 cells [1]; read-out: IC50 (μM), MCF-7): 2.3 ± 1 µM

Compound: OO [Compound H2O2, hydrogen peroxide, reference compound]
% of DCFH-DA positive cells [6]: 72 ± 4%

Compound: C=CCN1C=CN(CCCC)[CH]1[Pd]([Cl])([Cl])[CH]1N(CC=C)C=CN1CCCC (stereo not shown) [Compound 8]
IC50 (HCT 116 cell lines): 26.5 µM

Compound: trans-[1-(1R)-menthyl-4-(benzyl)-1,2,4-triazol-5-ylidene]2Pd(OCOCF3)2 [(1R,2R,5S)-3c]
IC50 (MCF-7 cells [1]; read-out: IC50 (μM), MCF-7): > 10 µM
